Test [1] addresses T1, wildtype Kras / hSOS1 (Homo sapiens, UniProt P01116).
T1 construct: made in house; host or cells: E. coli BL21 (DE3)
Briefly: HTRF assay, wildtype Kras / SOS1 interaction. In kind it is binding. To be noted: read-out: IC50 against wildtype Kras. An outline of the steps: (§1)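 Compounds, in duplicate at six concentrations from 10 μM to 0.01 μM, are added to GST-K-Ras premixed with anti-GST-Eu(K), then His-hSOS1 with anti-6His-XL665. After roughly 10 min, FRET is measured and the emission ratio is used to derive IC50.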
For orientation: In TR-FRET formats the signal depends on donor and acceptor labels being close together.

The target in test [2] is GST-tagged K-Ras mutant / His-tagged hSOS1 (Homo sapiens, UniProt P01116). Briefly: HTRF assay, K-Ras mutant / SOS1 interaction. It counts as binding. To be noted: read-out: IC50 against mutant Kras. An outline of the steps: as §1
Chain of GST-tagged K-Ras mutant / His-tagged hSOS1 (P01116 whole entry G12D, form open): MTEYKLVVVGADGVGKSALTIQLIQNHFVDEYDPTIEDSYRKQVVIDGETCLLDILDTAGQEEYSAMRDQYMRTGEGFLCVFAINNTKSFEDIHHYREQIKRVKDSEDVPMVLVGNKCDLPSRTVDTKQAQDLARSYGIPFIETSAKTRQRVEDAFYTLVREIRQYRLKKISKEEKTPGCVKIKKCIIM
Where [3] appears, read: compound nos. 201-213, general methodology of example 5.
The mark [4] stands for this setting: compound nos. 102-196, general methodology of example 5.

Like-named read-outs stand apart in the source and are kept apart here.

T1 sequence (P01116 1-188 isoform P01116-2): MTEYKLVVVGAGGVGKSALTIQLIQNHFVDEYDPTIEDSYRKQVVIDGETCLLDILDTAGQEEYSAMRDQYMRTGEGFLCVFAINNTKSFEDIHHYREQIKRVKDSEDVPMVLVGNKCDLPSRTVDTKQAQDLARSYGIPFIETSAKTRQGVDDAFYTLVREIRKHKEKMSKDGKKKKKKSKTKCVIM

Take `Nc1nc2c(-c3ccc4c(N5CC6CCC(C5)N6)nc(OC[C@@]56CCCN5C[C@H](F)C6)nc4c3F)ccc(F)c2s1` [Compound 207, 4-(4-((1R,5S)-3,8-diaza-bicyclo[3.2.1]octan-3-yl)-8-fluoro-2-(((2R,7aS)-2-fluoro-tetrahydro-1H-pyrrolizin-7a(5H)-yl)methoxy)quin-azolin-7-yl)-7-fluorobenzo-[d]thiazol-2-amine]: the half-maximal inhibitory concentration (IC50) in test [1] (setting [3]) and in test [2] (setting [3]) was below 1500 nM throughout.
For `Nc1nc2c(-c3c(Cl)cc4c(N5CCCC6(CCNC6)C5)nc(OC[C@@]56CCCN5C[C@H](F)C6)nc4c3F)ccc(F)c2s1` (stereo partly drawn) [Compound 532, 4-(6-chloro-8-fluoro-2-(((2R,7aS)-2-fluorotetra-hydro-1H-pyrrolizin-7a(5H)-yl)methoxy)-4-(2,7-diaza-spiro[4.5]decan-7-yl)quin-azolin-7-yl)-7-fluorobenzo-[d]thiazol-2-amine], the IC50 – broadly, the point on the concentration scale where inhibition reaches its midpoint – in test [1] (compound nos. 401-703) was above 500 nM; in test [2] (compound nos. 401-703), below 500 nM.
On to `Nc1nc2c(-c3c(Cl)cc4c(N5CC6CNC(C6)C5)nc(OC[C@@]56CCCN5C[C@H](F)C6)nc4c3F)ccc(F)c2s1` (stereo partly drawn) [Compound 201, 4-(4-(3,6-diazabicyclo[3.2.1]octan-3-yl)-6-chloro-8-fluoro-2-(((2R,7aS)-2-fluorotetrahydro-1H-pyrrolizin-7a(5H)-yl)methoxy)quinazolin-7-yl)-7-fluorobenzo[d]thiazol-2-amine], for which the IC50 in test [1] (setting [3]) and in test [2] (setting [3]) was below 1500 nM throughout.
For the compound `Oc1cc(-c2cnc3c(N4CC5CCC(C4)N5)nc(OC[C@@]45CCCN4C[C@H](F)C5)nc3c2)c2ccccc2c1` (single isomer, unassigned) [Compound 610], the concentration for half-maximal inhibition (IC50) in test [1] (compound nos. 401-703) and in test [2] (compound nos. 401-703) was above 500 nM each time.
For `Nc1nc2c(-c3c(Cl)cc4c(N5CCCOCC5)nc(OC[C@@]56CCCN5C[C@H](F)C6)nc4c3F)ccc(F)c2s1` [Compound 154, 4-(6-chloro-8-fluoro-2-(((2R,7aS)-2-fluorotetra-hydro-1H-pyrrolizin-7a(5H)-yl)methoxy)-4-(1,4-oxazepan-4-yl)quin-azolin-7-yl)-7-fluoro-benzo[d]-thiazol-2-amine], the half-maximal inhibitory concentration (IC50) in test [1] (setting [4]) and in test [2] (setting [4]) was below 500 nM throughout.
`N#Cc1c(N)sc2c(F)ccc(-c3c(Cl)cc4c(N5CCC6CCC(C5)N6)nc(OC[C@@]56CCCN5C[C@H](F)C6)nc4c3F)c12` (stereo partly drawn) [Compound 504, 4-(4-(3,9-diazabicyclo-[4.2.1]nonan-3-yl)-6-chloro-8-fluoro-2-(((2R,7aS)-2-fluorotetrahydro-1H-pyrrol-izin-7a(5H)-yl)methoxy)-quin-azolin-7-yl)-2-amino-7-fluorobenzo[b]thiophene-3-carbonitrile]: the IC50 in test [1] (compound nos. 401-703) was above 500 nM; in test [2] (compound nos. 401-703), below 500 nM.
In the same order, the values of `Nc1nc2c(-c3c(Cl)cc4c(N5CC6CCC(CC6)C5)nc(OC[C@@]56CCCN5C[C@H](F)C6)nc4c3F)ccc(F)c2s1` [Compound 690, 4-(4-(3-azabicyclo[3.2.2]-nonan-3-yl)-6-chloro-8-fluoro-2-(((2R,7aS)-2-fluorotetrahydro-1H-pyrrol-izin-7a(5H)-yl)methoxy)-quinazolin-7-yl)-7-fluoro-benzo[d]thiazol-2-amine] are above 500 nM and below 500 nM.
The like results for `Nc1nc2c(-c3c(Cl)cc4c(N5CC6CCC(C5)NC6)nc(OC[C@@]56CCCN5C[C@H](F)C6)nc4c3F)ccc(F)c2s1` (stereo partly drawn) [Compound 511, 4-(4-(3,6-diazabicyclo-[3.2.2]nonan-3-yl)-6-chloro-8-fluoro-2-(((2R,7aS)-2-fluorotetrahydro-1H-pyrrol-izin-7a(5H)-yl)methoxy)-quinazolin-7-yl)-7-fluoro-benzo[d]thiazol-2-amine] were, in that order, above 500 nM and below 500 nM.
For the compound `Nc1nc2c(-c3c(Cl)cc4c(N5CCCCC(F)(F)C5)nc(OCC56CCCN5CCC6)nc4c3F)cccc2s1` [Compound 116, 4-(6-chloro-4-(3,3-difluoro-azepan-1-yl)-8-fluoro-2-((tetrahydro-1H-pyrrolizin-7a(5H)-yl)methoxy)quin-azolin-7-yl)benzo[d]thiazol-2-amine], the IC50 in test [1] (setting [4]) and in test [2] (setting [4]) was below 500 nM each time.
As to `Fc1c(-c2ccccc2-c2ccccc2)c(Cl)cc2c(N3CCCCCC3)nc(OCC34CCCN3CCC4)nc12` [Compound 603, 7-([1,1′-biphenyl]-2-yl)-4-(azepan-1-yl)-6-chloro-8-fluoro-2-((tetrahydro-1H-pyrrolizin-7a(5H)-yl)meth-oxy)quinazoline], the half-maximal inhibitory concentration (IC50) in test [1] (compound nos. 401-703) and in test [2] (compound nos. 401-703) was above 500 nM throughout.
For the compound `CC(C)CCN1[C@@H]2CC[C@H]1CN(c1nc(OCC34CCCN3CCC4)nc3c(F)c(-c4ccc(F)c5sc(N)nc45)c(Cl)cc13)C2` [Compound 682, 4-(6-chloro-8-fluoro-4-((1R,5S)-8-isopentyl-3,8-diazabicyclo[3.2.1]octan-3-yl)-2-((tetrahydro-1H-pyr-rolizin-7a(5H)-yl)methoxy)-quinazolin-7-yl)-7-fluoro-benzo[d]thiazol-2-amine], the half-inhibitory concentration (IC50) in test [1] (compound nos. 401-703) is above 500 nM; in test [2] (compound nos. 401-703) it was below 500 nM.
In the same order, the values of `CN(C)CC1(COc2nc(N3CC4CCC(C3)N4)c3ccc(-c4cccc5cccc(Cl)c45)c(F)c3n2)CC1` [Compound 447, 1-(1-(((4-(3,8-diazabicyclo-[3.2.1]octan-3-yl)-7-(8-chloronaphthalen-1-yl)-8-fluoroquinazolin-2-yl)oxy)-methyl)cyclopropyl)-N,N-dimethylmethanamine] are below 500 nM and above 500 nM.
As to `CN1CCC[C@H]1COc1nc(N2CCNCC(F)(F)C2)c2cc(Cl)c(-c3ccc(F)c4sc(N)nc34)c(F)c2n1` [Compound 104, 4-(6-chloro-4-(6,6-difluoro-1,4-diazepan-1-yl)-8-fluoro-2-(((S)-1-methylpyrrolidin-2-yl)methoxy)quinazolin-7-yl)-7-fluorobenzo[d]thiazol-2-amine], the IC50 in test [1] (setting [4]) and in test [2] (setting [4]) was below 500 nM throughout.
In the case of `CN1CCC[C@H]1COc1nc(N2CCCC(NC3CC3)CC2)c2cc(Cl)c(-c3cccc4sc(N)nc34)c(F)c2n1` (stereo partly drawn) [Compound 559, 4-(6-chloro-4-(4-(cyclo-propylamino)azepan-1-yl)-8-fluoro-2-(((S)-1-methyl-pyrrolidin-2-yl)methoxy)-quinazolin-7-yl)benzo[d]-thiazol-2-amine], the half-maximal inhibitory concentration (IC50) in test [1] (compound nos. 401-703) and in test [2] (compound nos. 401-703) was above 500 nM each time.
For the compound `N#CCC1CNCCN(c2nc(OCC34CCCN3CCC4)nc3c(F)c(-c4ccc(F)c5sc(N)nc45)c(Cl)cc23)C1` (stereo not drawn) [Compound 187, 2-(1-(7-(2-amino-7-fluoro-benzo[d]thiazol-4-yl)-6-chloro-8-fluoro-2-((tetra-hydro-1H-pyrrolizin-7a(5H)-yl)methoxy)quin-azolin-4-yl)-1,4-diazepan-6-yl)acetonitrile], the IC50 in test [1] (setting [4]) and in test [2] (setting [4]) was below 500 nM in each case.
On to `CN1CCC[C@H]1COc1nc(N2CCNCC(F)(F)C2)c2cc(Cl)c(-c3cccc4cccc(Cl)c34)c(F)c2n1` [Compound 170, 6-chloro-7-(8-chloronaph-thalen-1-yl)-4-(6,6-difluoro-1,4-diazepan-1-yl)-8-fluoro-2-(((S)-1-methylpyrrolidin-2-yl)methoxy)quinazoline], for which the IC50 in test [1] (setting [4]) and in test [2] (setting [4]) was above 500 nM throughout.
As to `CN1CCCC1CCNc1nc(N2CC3CCC(C2)N3)c2ccc(-c3ccc(F)c4sc(N)nc34)nc2n1` (stereo not drawn) [Compound 697, 4-(4-(3,8-diazabicyclo-[3.2.1]octan-3-yl)-2-((2-(1-methylpyrrolidin-2-yl)-ethyl)amino)pyrido[2,3-d]-pyrimidin-7-yl)-7-fluoro-benzo[d]thiazol-2-amine], the IC50 in test [1] (compound nos. 401-703) and in test [2] (compound nos. 401-703) was above 500 nM each time.
As to `CCCC1CCCN(c2nc(OC[C@@H]3CCCN3C)nc3c(F)c(-c4cccc5sc(N)nc45)c(Cl)cc23)CC1` (stereo partly drawn) [Compound 646, 4-(6-chloro-8-fluoro-2-(((S)-1-methylpyrrolidin-2-yl)-methoxy)-4-(4-propylaze-pan-1-yl)quinazolin-7-yl)-benzo[d]thiazol-2-amine], the 50% inhibitory concentration (IC50) in test [1] (compound nos. 401-703) and in test [2] (compound nos. 401-703) was above 500 nM in each case.
On to `CN1CCC[C@H]1COc1nc2c(c(N3CCNCC(F)(F)C3)n1)CCC(c1cccc3sc(N)nc13)C2` (stereo partly drawn) [Compound 432, 4-(4-(6,6-difluoro-1,4-diazepan-1-yl)-2-(((S)-1-methylpyrrolidin-2-yl)methoxy)-5,6,7,8-tetrahydroquinazolin-7-yl)benzo[d]thiazol-2-amine], for which the IC50 in test [1] (compound nos. 401-703) was below 500 nM; in test [2] (compound nos. 401-703) it was above 500 nM.
Consider `CN1CCC[C@H]1COc1nc(N2CCCC(F)(F)CC2)c2cc(Cl)c(-c3cccc4sc(N)nc34)c(F)c2n1` [Compound 119, 4-(6-chloro-4-(4,4-difluoro-azepan-1-yl)-8-fluoro-2-(((S)-1-methylpyrrolidin-2-yl)methoxy)quinazolin-7-yl)-benzo[d]thiazol-2-amine], for which the IC50 in test [1] (setting [4]) is below 500 nM; in test [2] (setting [4]), above 500 nM.
Regarding `CN(C)C1CN(c2nc(N3CC4CCC(C3)N4)c3cc(Cl)c(-c4ccc(F)c5sc(N)nc45)c(F)c3n2)C1` [Compound 503, 4-(4-(3,8-diazabicyclo-[3.2.1]octan-3-yl)-6-chloro-2-(3-(dimethyl-amino)azetidin-1-yl)-8-fluoroquinazolin-7-yl)-7-fluorobenzo[d]thiazol-2-amine], the IC50 in test [1] (compound nos. 401-703) and in test [2] (compound nos. 401-703) was above 500 nM each time.
